Data set [1] can be described thus: Photophysical analysis: absorption, excitation and emission at 10 μM (Example 5). It is filed as physicochemical. The note with it: for λabs / λem / Stokes Shift: acetonitrile at 10 μM; for λex (excitation wavelength): acetonitrile at 10 μM (footnotes a,b); for Stokes Shift: calculated from excitation wavelength; for λex: footnotes a,g: acetonitrile at 10 μM / EtOH at 10 μM. The protocol: (§1) All data were collected on a SHIMAZDU Spectrofluorometer RF-5301PC. Solutions of the respective compounds were prepared in acetonitrile at approximately 1 mM concentration. Solutions (4 mL) were added to a freshly washed quartz cuvette for measurements. The excitation wavelength was varied between 270 nm and 390 nm in 20 nm intervals until the greatest intensity emission was detected. The emission spectra ranges started at 20 nm to the red of the chosen excitation wavelength up to 780 nm. Scan speed was set at “Very Fast” with both the slit widths set to 1.5 mm.
(§2) All data were collected on a SHIMAZDU Spectrofluorometer RF-5301PC. Solutions of the respective compounds were prepared in acetonitrile at approximately 1 mM concentration. Solutions (4 mL) were added to a freshly washed quartz cuvette for measurements. The monitored emission wavelength was set using the high intensity emission from the respective molecule. The scanning range was from 220 nm through 770 nm. Scan speed was set at “Very Fast” with both the slit widths set to 1.5 mm.
Excitation/emission data for compounds 6b, 7b, 8b, 15b, 16b, and 17b were collected using the methods described in Example 3 but using a lower concentration of acetonitrile (10 μM). Compounds 15b, 16b and 17b and their parent molecules (6b, 7b and 8b) all luminesce in the visible range and their optical properties are described in Table 4. […] The wavelength of λex for the excitation scan corresponds to excitation to S1, which leads to emission. This λex for all the molecules were red shifted, or shifted to the direction of longer wavelengths, from the peak absorption by an average 40 nm.

Assay in data set [2]: as above
It is filed as physicochemical. The following applies: EtOH at 10 μM.

Data set [3] can be described thus: Emission and excitation scans on spectrofluorometer, approximately 1 mM in acetonitrile (Example 3). It is filed as physicochemical. The protocol:
General Procedure for Emission and Excitation Data Collection:
as §1, §2

Data set [4] can be described thus: Quantum yield by single-point method. The note with it: single-point method in EtOH.
Data set [5] relates to HeLa human cervical carcinoma cell line. Nature of the data set: Cell imaging of HeLa cells incubated with compound, fluorescence microscopy. It is filed as cell-based. The note with it: 1 μM, 120 min; for luminescence intensity in cells: excitation 350 nm, emission approximately 400 nm; for location of luminescence in the cell: merged bright field and UV images. How it is done: HeLa human cervical carcinoma cell line was obtained from ATCC (Manassas, Va.). The cells were cultured in a humidified incubator at 5% CO2 and 37° C. The cell line was grown in D-MEM (Invitrogen) high glucose supplemented with 10.0% fetal bovine serum (Invitrogen, Carlsbad, Calif.) and 1.0% Penicillin/Streptomycin (Invitrogen, Carlsbad, Calif.) for an environment suitable for cell growth. The culture was sub-cultured every three days to maintain normal cell growth.
Sterile glass PDL coated #1.5 cover slips (NeuVitro), pre-incubated with culture medium, were placed in sterile 6-well plates. Single cell suspension of the HeLa (cervical cancer cells taken from patient Henrietta Lacks) cell line was prepared at 5×10^4 cells ml^−1 in the appropriate medium. Volumes of 2.0 mL were pipetted into each of the wells containing the coverslips. The 6-well plate was left overnight at 37.0° C. in a 5.0% CO2 incubator. Following the overnight incubation, the plate was aspirated dry and then fresh culture medium, containing the drug (at 1.0 μM and 0.10% DMSO) in a volume of 2.0 mL, was gently pipetted onto the cell monolayers attached to the glass cover slips. Cells on the cover slips were exposed to the drug for approximately 2 hours. Cells were washed with PBS and treated with 4.0% paraformaldehyde solution prepared in PBS, incubated for 30 minutes at room temperature for […]. Several washes with PBS were completed to ensure excess solution was rinsed away. Glass cover slips were removed and mounted on slides with ProLong Gold Antifade Mountant (ThermoFisher Scientific). The specimen was dried for several minutes and sealed with clear nail polish before visualized under a microscope
Cell Image Captures: All images were captured with a Leica DM 4000 B microscope with a DFC3000G camera (Leica Microsystems, Germany) and 63× oil immersion lens. HeLa cells were staged according to the method above. Leica LASX Core Software (Leica Microsystems, Germany) was used to acquire the images.
Stained cells were clearly observed by exciting the cells with a broadly emitting lamp using DAPI filter set. Luminescence was observed within the cell bodies of the HeLa cells upon excitation of the UV wavelengths. The excitation wavelength was 350 nm and the emission wavelength was approximately 400 nm. FIG. 14 depicts representative images of HeLa cervical cancer cell lines incubated with Compounds 16b, 15b, and 17b (1 μM) for 120 min. Bright field images of cells incubated with compounds 16b, 15b, and 17b are shown in Panels A, D, and G, respectively. Luminescence from each compound (16b, 15b, and 17b) is shown in Panels B, E, and H, respectively, with UV laser radiation.

Another data set concerns HeLa cells. The experiment in a line: Anti-proliferation (MTS) assay, HeLa cells, 72 hours. It is filed as cell-based, human. The note with it: 1 nM to 100 μM. How it is done:
To determine whether long-term exposure to each compound could be toxic to cells, Hela cells were treated with varying concentrations of Compounds 16b, 15b and 17b for 72 hours. An anti-proliferation protocol was carried out by testing chosen compounds on the growth of the human cervical cancer cell lines. HeLa cells were cultured in their respective media supplemented with 10.0% FBS (fetal bovine serum) and 1.0% Pen/Strep. Cells (1,000 cells/100 μL per well) were plated in a 96-well culture plate (TC treated, Greiner) and incubated for 24 h. 50 μL (DMSO <1%) of the compound at final concentrations 100 μM, 10 μM, 1 μM, 100 nM, 10 nM, and 1 nM were added to the appropriate wells. Triplicates wells were performed for each compound, on three identical plates.
After incubation of the cells, at 37° C. in a humidified atmosphere of 5% CO2 for 72 hours, the cells were stained and incubated with MTS (3-(4,5-dimethylthiazol-2-yl)-5-(3-carboxymethoxyphenyl)-2-(4-sulfophenyl)-2H-tetrazolium) reagent in the presence of PMS (phenazine methosulfate) reagent for 2 hours to determine cell viability. An MTS assay is based on the reduction of the MTS tetrazolium compound by viable cells to generate a colored formazan dye that is soluble in cell culture media. The absorbance of each well was taken at 490 nm using a multimode plate reader (FlexStation 3, Molecular Devices, San Diego, Calif.). GraphPad Prism was used to analyze transposed data to determine the percent viability. […] Each compound was tested in at least triplicate.

[6] abbreviates: cell footnote a: acetonitrile at 10 μM.

The structures appear in SMILES notation. “Also recorded” adds a separate entry of the source. Read-outs that look alike come from different tables or passages of the source.

For the compound `O=S(=O)(Oc1ccccc1)c1ccc2c(c1)-c1cc(-c3ccccc3)ccc1S2(=O)=O` [Compound 6b, phenyl 8-phenyldibenzo[b,d]thiophene-2-sulfonate 5,5-dioxide], in data set [1], the “log εex (molar extinction coefficient at excitation wavelength)” value (from here on “log εex”) is listed as 4.45 M^−1 cm^−1, the λabs is reported as 238 nm, the λem is on record as 426 nm and the “λex (excitation wavelength)” value was 274 nm. Also, in data set [1], the “Stokes Shift” value was 152 nm and the λex was found to be 275 nm. In data set [2], the “log εmax (maximum molar extinction coefficient)” value (from here on “log εmax”) came out at 4.69 M^−1 cm^−1 and the λem was determined as 434 nm. In data set [3], the “emission wavelength (emitted at)” value was “about 437 nm”, the “excitation wavelength (excited at)” value is listed as 344 nm and the luminescence colour entry is given as “luminesced in either a deep blue or near blue wavelength”. Also, in data set [4], the “φ (quantum yield)” value is given as 0.05.

Consider `O=S(=O)(Oc1ccccc1)c1ccc2c(c1)c1cc(-c3cccc4ccccc34)ccc1[s+]2[O-]` (stereo not drawn) [Compound 7a, phenyl 8-(naphthalen-1-yl)dibenzo[b,d]thiophene-2-sulfonate 5-oxide], for which the luminescence colour entry in data set [3] is on record as “luminesced in either a deep blue or near blue wavelength”.

On to `O=S(=O)(Oc1ccccc1)c1ccc2c(c1)-c1cc(-c3cccc4ccccc34)ccc1S2(=O)=O` [Compound 7b, phenyl 8-(naphthalen-1-yl)dibenzo[b,d]thiophene-2-sulfonate 5,5-dioxide], for which, in data set [1], the “log εex” value worked out at 4.51 M^−1 cm^−1, the λabs is reported as 243 nm, the λem was determined as 492 nm and the “λex (excitation wavelength)” value stood at 274 nm. In data set [1], the “Stokes Shift” value is reported as 218 nm and the λex came out at 274 nm. Further, in data set [2], the “log εmax” value stood at 4.79 M^−1 cm^−1 and the λem stood at 486 nm. For the same compound, in data set [3], the “emission wavelength (emitted at)” value turned out to be 499 nm, the “excitation wavelength (excited at)” value stood at 367 nm and the luminescence colour result is “luminesced in either a deep blue or near blue wavelength”. Also, the “φ (quantum yield)” value in data set [4] came to 0.15.

On to `O=S(=O)(Oc1ccccc1)c1ccc2c(c1)c1cc(-c3ccc(-c4ccccc4)cc3)ccc1[s+]2[O-]` (stereo not drawn) [Compound 8a, phenyl 8-([1,1′-biphenyl]-4-yl)dibenzo[b,d]thiophene-2-sulfonate 5-oxide], for which, in data set [3], the “emission wavelength (emitted at)” value worked out at 477 nm, the “excitation wavelength (excited at)” value stood at 365 nm and the luminescence colour entry is given as “luminesced in either a deep blue or near blue wavelength”.

For `O=S(=O)(Oc1ccccc1)c1ccc2c(c1)-c1cc(-c3ccc(-c4ccccc4)cc3)ccc1S2(=O)=O` [Compound 8b, phenyl 8-([1,1′-biphenyl]-4-yl)dibenzo[b,d]thiophene-2-sulfonate 5,5-dioxide], in data set [1], the “log εex” value is 4.17 M^−1 cm^−1, the λabs was 243 nm, the λem is 485 nm and the “λex (excitation wavelength)” value is 283 nm. Besides, in data set [1], the “Stokes Shift” value is on record as 202 nm and the λex is on record as 286 nm. In data set [2], the “log εmax” value is 4.59 M^−1 cm^−1 and the λem is listed as 478 nm. Besides, in data set [3], the “emission wavelength (emitted at)” value amounted to 475 nm, the “excitation wavelength (excited at)” value turned out to be 366 nm and the luminescence colour entry is on record as “luminesced in either a deep blue or near blue wavelength”. The “φ (quantum yield)” value in data set [4] was 0.59.

For `O=S(=O)([O-])c1ccc2c(c1)-c1cc(-c3ccccc3)ccc1S2(=O)=O.[Na+]` [Compound 15b, sodium 8-phenyldibenzo[b,d]thiophene-2-sulfonate 5,5-dioxide], in data set [5], the “tracking with chromosomes during mitosis” value is reported as “track with chromosomes during mitosis”, the “luminescence intensity in cells” value is recorded as “intense luminescence” and the “location of luminescence in the cell” value is on record as “luminescence is clearly identified within the nucleus of the cell”. Besides, in the data set on HeLa cells, the “cytotoxicity / decrease in cell viability” value is recorded as “do not show any decrease in cell viability at any concentration tested; also recorded: low cytotoxicity”. In data set [1], the “log εex” value turned out to be 4.4 M^−1 cm^−1, the λabs stood at 248 nm, the λem turned out to be 371 nm and the “λex (excitation wavelength)” value was 268 nm. In data set [1], the “Stokes Shift” value is 103 nm and the λex is 274 nm. In data set [2], the “log εmax” value was determined as 4.67 M^−1 cm^−1 and the λem turned out to be 380 nm. Also, in data set [4], the “φ (quantum yield)” value was determined as 0.07.

In the case of `O=S(=O)([O-])c1ccc2c(c1)-c1cc(-c3ccc(-c4ccccc4)cc3)ccc1S2(=O)=O.[Na+]` [Compound 16b, sodium 8-([1,1′-biphenyl]-4-yl)dibenzo[b,d]thiophene-2-sulfonate 5,5-dioxide], in data set [5], the “tracking with chromosomes during mitosis” value is given as “track with chromosomes during mitosis”, the “luminescence intensity in cells” value is “intense luminescence” and the “location of luminescence in the cell” value was “luminescence is clearly identified within the nucleus of the cell”. Moreover, the “cytotoxicity / decrease in cell viability” value with HeLa cells was “begins to show some degree of toxicity at 100 μM; also recorded: low cytotoxicity”. Further, in data set [1], the λabs is recorded as 246 nm, the λem is recorded as 412 nm, the “λex (excitation wavelength)” value is 287 nm and the “Stokes Shift” value is given as 125 nm. For the same compound, in data set [1], the λex amounted to 284 nm. Besides, in data set [1] (setting [6]), the “log εex” value was 2.48^a M^−1 cm^−1 and the “log εmax” value is given as 4.75^a M^−1 cm^−1. The λem in data set [2] is 422 nm. For the same compound, the “φ (quantum yield)” value in data set [4] turned out to be 0.29.

The record behind these values is patent US10221153B2, “Dibenzothiophene compounds” (Saint Louis University, priority 2017, dated 2019).
